Experimental data taken from patent US12643859B2, “Pyridyl oxycarboxylic acid oxime derivative and preparation method therefor, weeding composition and application thereof” (Qingdao Kingagroot Chemical Compound Co., Ltd., priority 2018, dated 2026).
One block for each compound: values may come before it.

Key:
Assay type in all cases: in vivo
Indica rice = assay: Post-emergence test experiment, crop selectivity; settings: post-emergence spray, 3 weeks in greenhouse
Method: (§1) The above described growth inhibition rate is fresh weight inhibition rate.
(§2) Post-emergence test experiment: Monocotyledonous and dicotyledonous weed seeds and main crop seeds (i. e. wheat, corn, rice, soybean, cotton, oilseed, millet and sorghum.) were put into a plastic pot loaded with soil. Then covered with 0.5-2 cm soil, the seeds were allowed to grow in good greenhouse environment. The test plants were treated at 2-3 leaf stage 2 weeks after sowing. The test compounds of the invention were dissolved with acetone respectively, then added with tween-80, and using 1.5 liters per hectare of an emulsible concentrate of methyl oleate as a synergist, and diluted by certain amount of water to certain concentration. The solution was sprayed to the plants with a sprayer. Then the plants were cultured for 3 weeks in the greenhouse, and the experiment result of weed controlling effect was listed in tables 3-4.

Japonica rice = assay: Post-emergence test experiment, crop selectivity; settings: for Activity level (fresh weight growth inhibition rate), Japonica rice: post-emergence spray, 3 weeks in greenhouse
Method: as §1, §2

Cyperus iria = assay: Post-emergence test experiment, weed control; settings: post-emergence spray, 3 weeks in greenhouse; for Activity level (fresh weight growth inhibition rate), Cyperus iria: 600 g a.i./ha plus water 450 kg/ha
Method: as §1, §2

[1] = tested on: Monocotyledonous and dicotyledonous weed seeds and main crop seeds; assay: Post-emergence test experiment (Table 3, 1000 g a.i./ha); settings: 3 weeks in greenhouse, fresh weight inhibition
Method: as §1, §2

[2] = 600 g a.i./ha plus water 450 kg/ha

- Selectivity to / inhibition of rice (in words) (Japonica rice; post-emergence, regardless of japonica or indica rice): great inhibition to rice
Structure (SMILES): CC(Oc1nc(F)c(Cl)c(N)c1Cl)C(=O)O (centres unmarked) [Control compound A, reference compound]
- Activity level (fresh weight growth inhibition rate), Indica rice (Indica rice; 300 g a.i./ha): 3 (Level 3: the growth inhibition rate is equal to or greater than 40% and less than 60%)
- Activity level (fresh weight growth inhibition rate), Indica rice (Indica rice; [2]): 3 (Level 3: the growth inhibition rate is equal to or greater than 40% and less than 60%)
- Activity level (fresh weight growth inhibition rate), Japonica rice (Japonica rice; 300 g a.i./ha): 2 (Level 2: the growth inhibition rate is equal to or greater than 20% and less than 40%)
- Activity level (fresh weight growth inhibition rate), Japonica rice (Japonica rice; [2]): 3 (Level 3: the growth inhibition rate is equal to or greater than 40% and less than 60%)
- inhibition at 300 g/ha (Cyperus iria; Cyperus iria, 504 h, 300 g a.i./ha, read-out: Activity level (fresh weight growth inhibition rate), Cyperus iria): 60 to 85%
- Activity level (fresh weight growth inhibition rate), Cyperus iria (Cyperus iria): 5 (Level 5: the growth inhibition rate is greater than 85%)

Structure (SMILES): CC(Oc1nc(F)c(Cl)c(N)c1Cl)C(=O)ON=C(C(=O)NCc1ccco1)c1ccccc1 (centres unmarked) [Compound 104]
- Activity level (fresh weight growth inhibition rate), Indica rice (Indica rice; [2]): 0 (Level 0: the growth inhibition rate is less than 5%)
- Activity level (fresh weight growth inhibition rate), Japonica rice (Japonica rice; [2]): 0 (Level 0: the growth inhibition rate is less than 5%)
- Activity level (fresh weight growth inhibition rate), Cyperus iria (Cyperus iria): 5 (Level 5: the growth inhibition rate is greater than 85%)
- Activity level (growth inhibition rate) Digitaria sanguinalis [1]: 5 (Level 5: the growth inhibition rate is greater than 85%)
- Activity level (growth inhibition rate) Echinochloa crusgalli [1]: 5 (Level 5: the growth inhibition rate is greater than 85%)
- Activity level (growth inhibition rate) Galium spurium [1]: 5 (Level 5: the growth inhibition rate is greater than 85%)
- Activity level (growth inhibition rate) Leptochloa chinensis [1]: 5 (Level 5: the growth inhibition rate is greater than 85%)
- Activity level (growth inhibition rate) Monochoria Vaginalis [1]: 5 (Level 5: the growth inhibition rate is greater than 85%)
- Activity level (growth inhibition rate) Murdannia triquetra [1]: 5 (Level 5: the growth inhibition rate is greater than 85%)
- Activity level (growth inhibition rate) Setaria viridis [1]: 5 (Level 5: the growth inhibition rate is greater than 85%)

Structure (SMILES): CC(Oc1nc(F)c(Cl)c(N)c1Cl)C(=O)ON=C(C#N)c1ccc(Cl)cc1 (centres unmarked) [Compound 87]
- Activity level (fresh weight growth inhibition rate), Indica rice (Indica rice; [2]): 0 (Level 0: the growth inhibition rate is less than 5%)
- Activity level (fresh weight growth inhibition rate), Japonica rice (Japonica rice; [2]): 0 (Level 0: the growth inhibition rate is less than 5%)
- Activity level (fresh weight growth inhibition rate), Cyperus iria (Cyperus iria): 5 (Level 5: the growth inhibition rate is greater than 85%)
- Activity level (growth inhibition rate) Digitaria sanguinalis [1]: 5 (Level 5: the growth inhibition rate is greater than 85%)
- Activity level (growth inhibition rate) Echinochloa crusgalli [1]: 5 (Level 5: the growth inhibition rate is greater than 85%)
- Activity level (growth inhibition rate) Galium spurium [1]: 5 (Level 5: the growth inhibition rate is greater than 85%)
- Activity level (growth inhibition rate) Leptochloa chinensis [1]: 5 (Level 5: the growth inhibition rate is greater than 85%)
- Activity level (growth inhibition rate) Monochoria Vaginalis [1]: 5 (Level 5: the growth inhibition rate is greater than 85%)
- Activity level (growth inhibition rate) Murdannia triquetra [1]: 5 (Level 5: the growth inhibition rate is greater than 85%)
- Activity level (growth inhibition rate) Setaria viridis [1]: 5 (Level 5: the growth inhibition rate is greater than 85%)

Structure (SMILES): CCCC(Cl)=NOC(=O)C(C)Oc1nc(F)c(Cl)c(N)c1Cl (centres unmarked) [Compound 75]
- Activity level (fresh weight growth inhibition rate), Indica rice (Indica rice; [2]): 0 (Level 0: the growth inhibition rate is less than 5%)
- Activity level (fresh weight growth inhibition rate), Japonica rice (Japonica rice; [2]): 0 (Level 0: the growth inhibition rate is less than 5%)
- Activity level (fresh weight growth inhibition rate), Cyperus iria (Cyperus iria): 5 (Level 5: the growth inhibition rate is greater than 85%)
- Activity level (growth inhibition rate) Digitaria sanguinalis [1]: 5 (Level 5: the growth inhibition rate is greater than 85%)
- Activity level (growth inhibition rate) Echinochloa crusgalli [1]: 5 (Level 5: the growth inhibition rate is greater than 85%)
- Activity level (growth inhibition rate) Galium spurium [1]: 5 (Level 5: the growth inhibition rate is greater than 85%)
- Activity level (growth inhibition rate) Leptochloa chinensis [1]: 5 (Level 5: the growth inhibition rate is greater than 85%)
- Activity level (growth inhibition rate) Monochoria Vaginalis [1]: 5 (Level 5: the growth inhibition rate is greater than 85%)
- Activity level (growth inhibition rate) Murdannia triquetra [1]: 5 (Level 5: the growth inhibition rate is greater than 85%)
- Activity level (growth inhibition rate) Setaria viridis [1]: 5 (Level 5: the growth inhibition rate is greater than 85%)

Structure (SMILES): CCC(=NOC(=O)C(C)Oc1nc(F)c(Cl)c(N)c1Cl)C(=O)NCc1ccc(C)cc1 (centres unmarked) [Compound 100]
- Activity level (fresh weight growth inhibition rate), Indica rice (Indica rice; [2]): 0 (Level 0: the growth inhibition rate is less than 5%)
- Activity level (fresh weight growth inhibition rate), Japonica rice (Japonica rice; [2]): 0 (Level 0: the growth inhibition rate is less than 5%)
- Activity level (fresh weight growth inhibition rate), Cyperus iria (Cyperus iria): 5 (Level 5: the growth inhibition rate is greater than 85%)
- Activity level (growth inhibition rate) Digitaria sanguinalis [1]: 5 (Level 5: the growth inhibition rate is greater than 85%)
- Activity level (growth inhibition rate) Echinochloa crusgalli [1]: 5 (Level 5: the growth inhibition rate is greater than 85%)
- Activity level (growth inhibition rate) Galium spurium [1]: 5 (Level 5: the growth inhibition rate is greater than 85%)
- Activity level (growth inhibition rate) Leptochloa chinensis [1]: 5 (Level 5: the growth inhibition rate is greater than 85%)
- Activity level (growth inhibition rate) Monochoria Vaginalis [1]: 5 (Level 5: the growth inhibition rate is greater than 85%)
- Activity level (growth inhibition rate) Murdannia triquetra [1]: 5 (Level 5: the growth inhibition rate is greater than 85%)
- Activity level (growth inhibition rate) Setaria viridis [1]: 5 (Level 5: the growth inhibition rate is greater than 85%)

Structure (SMILES): CC(Oc1nc(F)c(Cl)c(N)c1Cl)C(=O)ON=C(c1ccc(N(C)C)cc1)[N+](=O)[O-] (centres unmarked) [Compound 90]
- Activity level (fresh weight growth inhibition rate), Indica rice (Indica rice; [2]): 0 (Level 0: the growth inhibition rate is less than 5%)
- Activity level (fresh weight growth inhibition rate), Japonica rice (Japonica rice; [2]): 0 (Level 0: the growth inhibition rate is less than 5%)
- Activity level (fresh weight growth inhibition rate), Cyperus iria (Cyperus iria): 5 (Level 5: the growth inhibition rate is greater than 85%)
- Activity level (growth inhibition rate) Digitaria sanguinalis [1]: 5 (Level 5: the growth inhibition rate is greater than 85%)
- Activity level (growth inhibition rate) Echinochloa crusgalli [1]: 5 (Level 5: the growth inhibition rate is greater than 85%)
- Activity level (growth inhibition rate) Galium spurium [1]: 5 (Level 5: the growth inhibition rate is greater than 85%)
- Activity level (growth inhibition rate) Leptochloa chinensis [1]: 5 (Level 5: the growth inhibition rate is greater than 85%)
- Activity level (growth inhibition rate) Monochoria Vaginalis [1]: 5 (Level 5: the growth inhibition rate is greater than 85%)
- Activity level (growth inhibition rate) Murdannia triquetra [1]: 5 (Level 5: the growth inhibition rate is greater than 85%)
- Activity level (growth inhibition rate) Setaria viridis [1]: 5 (Level 5: the growth inhibition rate is greater than 85%)

Structure (SMILES): CC=COc1ccc(C(=NOC(=O)C(C)Oc2nc(F)c(Cl)c(N)c2Cl)C(=O)OCC)cc1 (centres unmarked) [Compound 92]
- Activity level (fresh weight growth inhibition rate), Indica rice (Indica rice; [2]): 0 (Level 0: the growth inhibition rate is less than 5%)
- Activity level (fresh weight growth inhibition rate), Japonica rice (Japonica rice; [2]): 0 (Level 0: the growth inhibition rate is less than 5%)
- Activity level (fresh weight growth inhibition rate), Cyperus iria (Cyperus iria): 5 (Level 5: the growth inhibition rate is greater than 85%)
- Activity level (growth inhibition rate) Digitaria sanguinalis [1]: 5 (Level 5: the growth inhibition rate is greater than 85%)
- Activity level (growth inhibition rate) Echinochloa crusgalli [1]: 5 (Level 5: the growth inhibition rate is greater than 85%)
- Activity level (growth inhibition rate) Galium spurium [1]: 5 (Level 5: the growth inhibition rate is greater than 85%)
- Activity level (growth inhibition rate) Leptochloa chinensis [1]: 5 (Level 5: the growth inhibition rate is greater than 85%)
- Activity level (growth inhibition rate) Monochoria Vaginalis [1]: 5 (Level 5: the growth inhibition rate is greater than 85%)
- Activity level (growth inhibition rate) Murdannia triquetra [1]: 5 (Level 5: the growth inhibition rate is greater than 85%)
- Activity level (growth inhibition rate) Setaria viridis [1]: 5 (Level 5: the growth inhibition rate is greater than 85%)

Structure (SMILES): CC(Oc1nc(F)c(Cl)c(N)c1Cl)C(=O)ON=C1CCCC1 (centres unmarked) [Compound 117]
- Activity level (fresh weight growth inhibition rate), Indica rice (Indica rice; [2]): 0 (Level 0: the growth inhibition rate is less than 5%)
- Activity level (fresh weight growth inhibition rate), Japonica rice (Japonica rice; [2]): 0 (Level 0: the growth inhibition rate is less than 5%)
- Activity level (fresh weight growth inhibition rate), Cyperus iria (Cyperus iria): 5 (Level 5: the growth inhibition rate is greater than 85%)
- Activity level (growth inhibition rate) Digitaria sanguinalis [1]: 5 (Level 5: the growth inhibition rate is greater than 85%)
- Activity level (growth inhibition rate) Echinochloa crusgalli [1]: 5 (Level 5: the growth inhibition rate is greater than 85%)
- Activity level (growth inhibition rate) Galium spurium [1]: 5 (Level 5: the growth inhibition rate is greater than 85%)
- Activity level (growth inhibition rate) Leptochloa chinensis [1]: 5 (Level 5: the growth inhibition rate is greater than 85%)
- Activity level (growth inhibition rate) Monochoria Vaginalis [1]: 5 (Level 5: the growth inhibition rate is greater than 85%)
- Activity level (growth inhibition rate) Murdannia triquetra [1]: 5 (Level 5: the growth inhibition rate is greater than 85%)
- Activity level (growth inhibition rate) Setaria viridis [1]: 5 (Level 5: the growth inhibition rate is greater than 85%)
